{"source": "patent US20030139374A1", "about": "(University of Texas, published 2003)", "key": {"[1]": {"biological_target": "T1, Factor Xa generation (Factor VIIa, Factor X) (Homo sapiens, UniProt P08709)", "T1 construct": "purchased Sigma", "T1 sequence (P08709 61-212 limits assumed)": "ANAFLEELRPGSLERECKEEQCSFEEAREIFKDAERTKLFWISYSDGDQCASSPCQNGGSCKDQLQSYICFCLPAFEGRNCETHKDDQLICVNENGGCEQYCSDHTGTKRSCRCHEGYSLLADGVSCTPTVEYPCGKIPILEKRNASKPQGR", "T1 sequence (P08709 213-466 limits assumed)": "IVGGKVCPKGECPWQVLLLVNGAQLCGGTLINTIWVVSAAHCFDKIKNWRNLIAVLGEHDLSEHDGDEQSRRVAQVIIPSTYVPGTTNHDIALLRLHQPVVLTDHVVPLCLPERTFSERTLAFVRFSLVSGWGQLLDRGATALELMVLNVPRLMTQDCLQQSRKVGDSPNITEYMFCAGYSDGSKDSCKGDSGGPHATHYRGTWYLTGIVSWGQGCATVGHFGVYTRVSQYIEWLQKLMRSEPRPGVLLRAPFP", "T1 sequence (P13726 33-251 partner limits assumed)": "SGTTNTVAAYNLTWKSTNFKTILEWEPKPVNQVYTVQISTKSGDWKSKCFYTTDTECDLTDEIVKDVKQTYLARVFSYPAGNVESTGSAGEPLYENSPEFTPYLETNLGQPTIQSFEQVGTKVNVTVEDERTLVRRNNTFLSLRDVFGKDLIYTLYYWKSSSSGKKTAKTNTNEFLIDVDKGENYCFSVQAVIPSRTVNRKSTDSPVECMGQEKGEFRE", "assay": "Cell free two-stage coagulation assay", "assay_type": "biochemical", "settings": "FIG. 2", "experimental": "In vitro coagulation activity was tested in a cell free two-stage coagulation assay. Negatively charged phospholipids at a final concentration of 50 μM (phosphatidylserine and phosphatidylcholine from Sigma, Taufkirchen, Germany) in calcium buffer (50 mM Tris pH=8.1, 150 mM NaCl, 2 mg/ml BSA, 5 mM Ca^++) were mixed with Factor VIIa (Sigma, Taufkirchen, Germany) at 10 nM and with samples or controls and incubated for five min at 37° C. Factor X was added to a final concentration of 30 nM and samples were incubated for 5 min at room temperature. Finally, the chromogenic substrate S2765 (Haemochrom, Essen, Germany) was added in a 100 mM EDTA solution. Factor Xa generation as a measure of Tissue Factor activity was determined by the increase in the absorption at 405 nm.\nNegatively charged phospholipids at a final concentration of 50 μM (phosphatidylserine and phosphatidylcholine from Sigma, St. Louis, Mo.) in calcium buffer (50 mM Tris pH=8.1, 150 mM NaCl, 2 mg/ml BSA, 5 mM Ca^++) were mixed with Factor VIIa (Sigma, St. Louis, Mo.) at 10 nM and with samples or controls and incubated for five minutes at 37° C. Factor X (Sigma, St. Louis, Mo.) was added to a final concentration of 30 nM and samples were incubated for 5 minutes at room temperature. […] Factor Xa generation as a measure of tissue factor activity was determined by the increase in the absorption at 405 nm."}, "[2]": {"assay": "Plasma coagulation parameters (TAT, ATIII) three days after treatment", "assay_type": "in vivo, SCID mice", "settings": "tTF alone, no endotoxin, three days after i.v. treatment"}, "bEnd 3 cells": {"system": "bEnd 3 cells", "assay": "Cell bound coagulation assay on stimulated bEnd 3 endothelial cells (factor Xa generation)", "assay_type": "cell-based, murine", "settings": "for Factor Xa generation due to Factor VIIa production: factor VII-only values subtracted"}, "immobilized tTF": {"biological_target": "T2, immobilized tTF (Homo sapiens, UniProt P13726)", "T2 construct": "Recombinant soluble Tissue Factor protein (amino acids 1-219) was extracted from the periplasmic space of transformed E. coli; His tag (only implied by the Ni-NTA purification); made in house; host or cells: E. coli (periplasmic secretion, vector pswc7)", "T2 sequence (P13726 33-251)": "as the sequence (P13726 33-251 partner limits assumed) above", "assay": "Real time binding of tTF to immobilized tTF (surface plasmon resonance)", "settings": "tTF 30 μg/ml alone or preincubated with endotoxin or factor VIIa"}, "[3]": {"system": "L540rec human Hodgkin's lymphoma tumors", "assay": "Tumor tissue necrosis in L540rec tumor-bearing SCID mice treated with tTF and/or endotoxin", "assay_type": "in vivo", "experimental": "For in vivo studies, a metastasizing mouse model for human Hodgkin's lymphoma was used. 1×10^7 L540rec cells were injected subcutaneously into the right flank of SCID mice resulting in a subcutaneous tumor with lymph node metastases in the regional lymph node stations. Subcutanous tumors were measured with a caliper in three perpendicular directions a, b, and c, and volumes calculated according to the formula V=π/6×a×b×c.\n(§1) Treatment was initiated when subcutaneous tumors reached a size of 150 to 300 μl. Reagents were administered into the lateral tail vein.\n(§2) Mice were closely observed after treatment for clinical signs of toxicity and clinical status was documented at defined time points (5 minutes. 10 minutes, 15 minutes, 30 minutes. 1 hour, 2 hours, 24 hours, 48 hours, 72 hours). Blood samples were taken from the tail vein at 1 hour, 2 hours and 24 hours to measure TNFα blood levels. Three days after treatment, the mice were anesthetized, blood samples were taken from the vena cava for coagulation tests, and an autopsy was performed to document any changes in gross pathology. Tumors, lymph node metastases and the major normal organs (heart, lung, brain, liver, kidney, colon, spleen, pancreas) were harvested and prepared for histological analysis.\n(§3) Tissue samples harvested at the time of autopsy were fixed in 3% NBF (normal buffered formalin) and embedded in paraffin wax. Tissue blocs were cut, dewaxed and stained with hematoxilin and eosin (H&E). Tissue sections were analyzed on a light microscope by two independent investigators and histological findings were documented. Tumor sections with necrotic areas were scanned with a GS-700 imaging densitometer (Biorad, Hercules, Calif.) and areas of necrosis were calculated as % of total section area. Statistical Analysis was performed using SPSS software (SPSS Science Software, Erkrath, Germany) applying the Mann-Whitney-U-test for ungrouped data."}, "F9 sarcoma tumors": {"system": "F9 sarcoma tumors", "assay": "F9 sarcoma mouse model, tumor tissue necrosis", "assay_type": "in vivo, balb/c nude mice", "settings": "endotoxin-free tTF 4 μg; three days after treatment", "experimental": "1×10^7 F9 sarcoma cells were injected subcutaneously into the right flank of balb/c nude mice. Subcutanous tumors were measured with a caliper in three perpendicular directions a, b, and c, and volumes calculated according to the formula V=π/6×a×b×c. Treatment was initiated when subcutaneous tumors reached a size of 150 to 300 μl.\nReagents were administered into the lateral tail vein.\nMice were closely observed after treatment for clinical signs of toxicity and clinical status was documented at defined time points. Three days after treatment, mice were sacrificed and tumors were harvested. Paraffin embedded tissues were stained with hematoxilin and eosin (H&E). Tissue sections were analyzed on a light microscope by two independent investigators and histological findings were documented. Tumor sections with necrotic areas were scanned with a GS-700 imaging densitometer (Biorad. Hercules, Calif.) and areas of necrosis were calculated as % of total section area."}, "[4]": {"assay": "Clinical signs of toxicity and histology of normal organs after tTF and/or endotoxin", "assay_type": "in vivo, SCID mice", "settings": "for Symptoms: no endotoxin, tTF i.v.", "experimental": "as §1, §2, §3"}, "A20 lymphoma cells": {"system": "A20 lymphoma cells", "assay": "In vitro coagulation assay on A20 cells with B21-2/10H10 capture antibody", "assay_type": "cell-based, mouse", "settings": "for coagulation time: cells alone 190 seconds"}}}
{"substance": "tTF: truncated (soluble) human Tissue Factor, extracellular domain, amino acid 1-219 of the mature protein", "values": [{"measurement": "coagulation activities before and after endotoxin removal (depyrogenation)", "setting": "[1]", "result": "the same"}, {"measurement": "TAT", "setting": "[2]", "result": 25.4, "unit": "ng/mL"}, {"measurement": "Factor Xa generation due to Factor VIIa production", "setting": "bEnd 3 cells; stimulation with 0.5 μg/ml LPS (label LPS = medium only), 2 μg/ml factor VII and 0.01 μg/ml factor VIIa", "result": 3.00, "unit": "nkatS2222"}, {"measurement": "Factor Xa generation", "setting": "bEnd 3 cells; stimulation with 0.5 μg/ml LPS, then incubation with labelled agent (label LPS = medium only), 0.5 μg/ml factor VIIa", "result": 2.00, "unit": "nkatS2222"}, {"measurement": "Factor Xa generation", "setting": "bEnd 3 cells; stimulation with 10 μg/ml LPS, then incubation with labelled agent (label LPS = medium only), 0.5 μg/ml factor VIIa", "result": 2.91, "unit": "nkatS2222"}, {"measurement": "Factor Xa generation due to Factor VIIa production", "setting": "bEnd 3 cells; stimulation with Medium, mix with 2 μg/ml factor VII and 0.01 μg/ml factor VIIa", "result": 0.70, "unit": "nkatS2222"}, {"measurement": "Factor Xa generation", "setting": "bEnd 3 cells; stimulation with Medium, then incubation with the labelled agent (100 nM), mix with 0.5 μg/ml factor VIIa (VIIa not limiting)", "result": 0.40, "unit": "nkatS2222"}, {"measurement": "Factor Xa generation", "setting": "bEnd 3 cells; stimulation with TNFα (500 U/ml), then incubation with labelled agent (label TNFα = medium only), 0.5 μg/ml factor VIIa", "result": 0.67, "unit": "nkatS2222"}, {"measurement": "Factor Xa generation due to Factor VIIa production", "setting": "bEnd 3 cells; stimulation with TNFα (label TNFα = medium only), 2 μg/ml factor VII and 0.01 μg/ml factor VIIa", "result": 1.91, "unit": "nkatS2222"}, {"measurement": "binding to immobilized tTF", "setting": "immobilized tTF", "result": "did not bind"}, {"measurement": "% tumor necrosis", "setting": "[3]; Table 2, tTF alone, no endotoxin, three days after i.v. treatment", "result": 4, "unit": "%"}, {"measurement": "Percentage of tumor tissue necrosis", "setting": "[3]; tTF alone (4 μg or 16 μg endotoxin-free tTF), no endotoxin", "result": 0, "unit": "%"}, {"measurement": "anti-tumor effect", "setting": "[3]; tTF alone at 100 μg", "result": "anti-tumor effects begin to appear"}, {"measurement": "anti-tumor effect", "setting": "[3]; tTF alone at doses of from 4 μg to 16 μg", "result": "no anti-tumor effect"}, {"measurement": "average tumor tissue necrosis", "setting": "F9 sarcoma tumors", "result": 45, "unit": "%"}, {"measurement": "histology of normal organs", "setting": "[4]; light microscopy, three days after treatment", "result": "No histological abnormalities"}, {"measurement": "Symptoms", "setting": "[4]; listed as TTF", "result": "None"}, {"measurement": "Symptoms", "setting": "[4]; listed as endotoxin-free tTF", "result": "no clinical signs of toxicity"}, {"measurement": "coagulation time", "setting": "A20 lymphoma cells; 20,000 molecules per cell", "result": 140, "unit": "s"}, {"measurement": "coagulation time", "setting": "A20 lymphoma cells; 300,000 molecules of tTF per cell", "result": 40, "unit": "s"}, {"measurement": "concentration at which plasma coagulated in 50 seconds", "setting": "A20 lymphoma cells; bound via B21-2/10H10 to A20 cells", "result": 3, "unit": "nM"}, {"measurement": "time until fibrin strands were visible", "setting": "A20 lymphoma cells; mouse plasma, tTF bound by B21-2/10H10, untreated cells 164 seconds", "result": 36, "unit": "s"}, {"measurement": "increase in coagulation-inducing potency", "setting": "A20 lymphoma cells; presence of 0.1 nM Factor VIIa", "result": "2-5 fold"}]}
